Results reported in ChEMBL document CHEMBL5113385, “Natural products and synthetic analogues against HIV: A perspective to develop new potential anti-HIV drugs” (Eur J Med Chem, 2022).

How the values were obtained:
[1] = system: Human immunodeficiency virus 1; test: Antiviral activity against HIV-1 NL4-3 infected in human MT4 cells assessed as reduction in viral replication incubated for 48 hrs followed by addition of fresh medium containing compound measured after 2 days by ELISA; assay type: functional, organism-based; conditions: Human immunodeficiency virus 1, NL4-3, MT4, 48 h
[2] = molecular target: T1, Human immunodeficiency virus type 1 reverse transcriptase (Human immunodeficiency virus 1, UniProt Q72547); test: Inhibition of HIV-1 reverse transcriptase using ABTS as substrate and RNA template primed with oligo(dT)12-18 in presence of digoxigenin/biotin-labeled nucleotides by ELISA
[3] = system: Human immunodeficiency virus 1; test: Antiviral activity against HIV-1 IIIB infected in human MT4 cells assessed as reduction in cytopathic effect measured after 5 days by Cell Titer Glo assay; assay type: functional, organism-based; conditions: Human immunodeficiency virus 1, IIIB, MT4, 120 h
[4] = system: Human immunodeficiency virus 1; test: Antiviral activity against patient-derived wild-type HIV-1 infected in human CEM-T4 cells assessed as inhibition of viral replication preincubated for 24 hrs followed by viral infection measured after 7 days by ELISA; assay type: functional, organism-based; conditions: Human immunodeficiency virus 1, CEM-T4
[5] = molecular target: Human immunodeficiency virus type 1 reverse transcriptase (Human immunodeficiency virus 1) (UniProt Q72547); test: Inhibition of recombinant HIV-1 reverse transcriptase at 200 ug/ml by ELISA relative to control; conditions: dose 200.0 µg/ml
[6] = system: C8166; test: Cytotoxicity against human C8166 cells assessed as reduction in cell viability by MTT assay; assay type: functional
[7] = system: Human immunodeficiency virus 1; test: Antiviral activity against HIV-1 MC99 harboring deltaTat/Rev infected in human 1A2 cells assessed as reduction in syncytium formation preincubated for 1 hr followed by virus infection measured after 3 days by inverted microscopy; assay type: functional, organism-based; conditions: Human immunodeficiency virus 1, MC99, 1A2
[8] = Selectivity index, ratio of IC50 for human 1A2 cells to EC50 for HIV-1 MC99 harboring deltaTat/Rev infected in human 1A2 cells; assay type: toxicity, cell-based; conditions: read-out: Ratio IC50/EC50
[9] = system: Human immunodeficiency virus 1; test: Antiviral activity against HIV-1 assessed as viral growth inhibition; assay type: functional, organism-based
[10] = molecular target: Human immunodeficiency virus type 1 protease (Human immunodeficiency virus 1) (UniProt Q72874); test: Inhibition of HIV-1 protease relative to control; conditions: concentration not given here
[11] = molecular target: T1, Human immunodeficiency virus type 1 reverse transcriptase; test: Inhibition of HIV-1 LTR reverse transcriptase infected in human CEM cells using RNA template incubated for 1 hr by RT-PCR based cell-free assay
[12] = molecular target: Human immunodeficiency virus type 1 reverse transcriptase (Human immunodeficiency virus 1) (UniProt Q72547); test: Inhibition of HIV-1 reverse transcriptase using […] and oligo d(T)16 as primer at 200 ug/ml incubated for 1 hr by PicoGreen DNA fluorescence assay relative to control; conditions: dose 200.0 µg/ml
[13] = molecular target: Human immunodeficiency virus type 1 reverse transcriptase (Human immunodeficiency virus 1) (UniProt Q72547); test: Inhibition of HIV-1 reverse transcriptase at 200 ug/ml using poly(A) ribonucleotide as template and oligo d(T)16 as primer incubated for 1 hr by PicoGreen DNA fluorescence assay relative to control; conditions: dose 200.0 µg/ml
[14] = molecular target: T1, Human immunodeficiency virus type 1 reverse transcriptase; test: Inhibition of recombinant HIV-1 reverse transcriptase using ABTS as substrate incubated for 1 hr by ELISA
[15] = molecular target: T1, Human immunodeficiency virus type 1 reverse transcriptase; test: Inhibition of wild-type HIV-1 reverse transcriptase by Picogreen assay
[16] = system: Human immunodeficiency virus 1; test: Antiviral activity against HIV-1 infected in human C8166 cells assessed as reduction in virus-induced cytopathic effect by MTT assay; assay type: functional, organism-based; conditions: Human immunodeficiency virus 1, C8166

`CCCCC/C=C/C=C/O[C@@]12[C@@H]([C@H]3OCO[C@@]3(C(C)=O)[C@H](OC(=O)CCCCC)[C@H]1C)[C@@H]1O[C@]1(CO)[C@@H](O)[C@]1(O)C(=O)C(C)=C[C@H]12` showed an IC50 [1] of 0.9 nM.
`COC(=O)/C=C\c1c(-c2cccs2)[nH]c2ccccc12` gave an IC50 [2] of 9.38 nM.
Work on `COC(=O)/C=C/c1c(-c2cccs2)[nH]c2ccccc12` yielded an IC50 [2] of 720 nM.
Work on `COc1cc(F)c(Oc2cc(N)nc(Nc3ccc(C#N)cc3)n2)c(F)c1` yielded an IC50 [3] of 3 nM.
For `C=C(CP(=O)(OCC)OCC)[C@@H]1CC[C@]2(C(=O)O)CC[C@]3(C)[C@H](CC[C@@H]4[C@@]5(C)CC[C@H](OC(=O)CC(C)(C)C(=O)O)C(C)(C)[C@@H]5CC[C@]43C)[C@@H]12`, the IC50 [4] was 300 nM.
Work on `COc1cc(F)c(Nc2cc(N)nc(Nc3ccc(C#N)cc3)n2)c(F)c1` yielded an IC50 [3] of 2 nM.
`CC(C)=CCc1cc(/C=C/C(=O)O)cc(CC=C(C)C)c1` showed an inhibition [5] of 41.6%.
With `CC(C)=CCc1cc2ccc(=O)oc2c(CC=C(C)C)c1O` the CC50 [6] was over 200000 nM.
`COc1cc(F)c(C(=O)c2cc(N)nc(Nc3ccc(C#N)cc3)n2)c(F)c1` showed an IC50 [3] of 4.2 nM.
With `COc1cc([C@@H]2CC(=O)c3c(cc(OC)c(OC)c3O)O2)cc(OC)c1OC` the EC50 [7] was 172000 nM and the selectivity ratio [8] was 1.12.
In the case of `CCOc1ccc(S(=O)(=O)N2CCN(c3cc4c(cc3F)c(=O)c(C(=O)O)cn4CC)CC2)cc1`, the IC50 [9] is reported as 80 nM.
Work on `C=C(C)[C@@H]1CC[C@@H]2[C@]3(CC[C@]4(C)[C@@H]([C@H](C)CC/C=C(/C)C(=O)O)CC[C@@]24C)C[C@]13CCC(=O)O` yielded an inhibition [10] of 89.2%.
For `C=CCOCc1cn(C2CCON2C(=O)OCc2ccccc2)c(=O)[nH]c1=O` (configuration not stated), the IC50 [11] was 10 nM.
In the case of `C=CC(C)(C)c1cc2cc3c(c(CC=C(C)C)c2oc1=O)O[C@H](C(C)(C)O)C3`, the CC50 [6] is reported as over 200000 nM.
For `C#CCOCc1cn(C2CCON2C(=O)OCc2ccccc2)c(=O)[nH]c1=O` (configuration not stated), the IC50 [11] was 50 nM.
With `COc1cc(OC)c([C@@H]2CC[C@H]3C[C@@H](c4cc(OC)c(OC)cc4OC)Oc4cc(OC)c(O)c2c43)cc1OC` the inhibition [12] was 41.4%, the selectivity ratio [8] was 3.7 and the inhibition [13] was 41.4%.
With `C=C(C)[C@@H]1Cc2c(cc3oc(=O)ccc3c2O)O1` the CC50 [6] was over 200000 nM.
With `CO[C@H](Cc1cc2ccc(=O)oc2cc1O)C(C)(C)O` the CC50 [6] was over 200000 nM.
`O=C(O)[C@]1(O)C[C@H](O)[C@@H](O)[C@@H](O)C1` gave an IC50 [14] of 280000 nM.
With `COc1cc2c(c(O)c1OC)C(=O)C[C@@H](c1cc(O)c(OC)c(O)c1)O2` the EC50 [7] was under 8020 nM and the selectivity ratio [8] was 1.12.
In the case of `CCn1cc(C(=O)O)c(=O)c2cc(F)c(N3CCN(S(=O)(=O)c4ccc(OC)cc4)CC3)cc21`, the IC50 [9] is reported as 50 nM.
`CC1(C)CCc2cc3cc(O)c(=O)oc3cc2O1` showed a CC50 [6] of over 200000 nM.
`C=C(C)[C@@H]1CC[C@@H]2[C@]3(CC[C@]4(C)/C(=C(\C)CC/C=C(/C)C(=O)O)CC[C@@]24C)C[C@]13CCC(=O)O` gave an inhibition [10] of 85%.
Compound `N#Cc1ccc2c(Oc3ccccc3OCCn3ccc(=O)[nH]c3=O)cc(F)cc2c1` has an IC50 [15] of 4.8 nM.
Work on `CC1(C)Oc2cc3oc(=O)ccc3cc2[C@@H](O)[C@@H]1O` yielded a CC50 [6] of over 200000 nM.
With `O=c1c(O)c(-c2ccc(O)c(O)c2)oc2cc(O)cc(O)c12` the inhibition [5] was 43.4%.
Compound `C=CC(CO)[C@@H]1C[C@H]2c3[nH]c4ccccc4c3CCN2C(=O)[C@H]1CO` (some centres not stated) has an EC50 [16] of 12200 nM.
`CCCCC/C=C\C=C/O[C@@]12[C@@H]([C@H]3OCO[C@@]3(C(C)=O)[C@H](OC(C)=O)[C@H]1C)[C@@H]1O[C@]1(CO)[C@@H](O)[C@]1(O)C(=O)C(C)=C[C@H]12` gave an IC50 [1] of 0.9 nM.
